Data: ChEMBL document CHEMBL1201861, “Genomics of Drug Sensitity in Cancer screening data, Wellcome Trust Sanger Institute”

Tests used:
HLE = test: cells; assay type: functional, cell-based, Homo sapiens; settings: Homo sapiens, HLE
Description: SANGER: Inhibition of human HLE cell growth in a cell viability assay.

SCC-25 = test: cells; assay type: functional, cell-based, Homo sapiens; settings: Homo sapiens, SCC-25;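 note: growth inhibition of SCC-25 cells, measured with a cell viability assay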
Description: SANGER: Inhibition of human SCC-25 cell growth in a cell viability assay.

YT = test: cells; assay type: functional, cell-based, Homo sapiens; settings: Homo sapiens, YT
Description: SANGER: Inhibition of human YT cell growth in a cell viability assay.

MDA-MB-231 = test: cells; assay type: functional, cell-based, Homo sapiens; settings: Homo sapiens, MDA-MB-231
Description: SANGER: Inhibition of human MDA-MB-231 cell growth in a cell viability assay.

HO-1-N-1 = test: cells; assay type: functional, cell-based, Homo sapiens; settings: Homo sapiens, HO-1-N-1;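 note: growth inhibition of human HO-1-N-1 cells, read out with a cell viability assay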
Description: SANGER: Inhibition of human HO-1-N-1 cell growth in a cell viability assay.

NCI-H596 = test: cells; assay type: functional, cell-based, Homo sapiens; settings: Homo sapiens, NCI-H596;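 note: growth inhibition of NCI-H596 cells, read out with a cell viability assay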
Description: SANGER: Inhibition of human NCI-H596 cell growth in a cell viability assay.

JIYOYE = test: cells; assay type: functional, cell-based, Homo sapiens; settings: Homo sapiens, JIYOYE
Description: SANGER: Inhibition of human JiyoyeP-2003 cell growth in a cell viability assay.

OAW-28 = test: cells; assay type: functional, cell-based, Homo sapiens; settings: Homo sapiens, OAW-28;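 note: growth inhibition of OAW-28 cells, read out with a cell viability assay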
Description: SANGER: Inhibition of human OAW-28 cell growth in a cell viability assay.

GCT = test: cells; assay type: functional, cell-based, Homo sapiens; settings: Homo sapiens, GCT;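 note: GCT cell line proliferation inhibition, read out with a cell viability assay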
Description: SANGER: Inhibition of human GCT cell growth in a cell viability assay.

T98G = test: cells; assay type: functional, cell-based, Homo sapiens; settings: Homo sapiens, T98G;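 note: growth inhibition of T98G cells, read out by a cell viability assay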
Description: SANGER: Inhibition of human T98G cell growth in a cell viability assay.

SW1417 = test: cells; assay type: functional, cell-based, Homo sapiens; settings: Homo sapiens, SW1417;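 note: growth inhibition of human SW1417 cells, read out with a cell viability assay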
Description: SANGER: Inhibition of human SW1417 cell growth in a cell viability assay.

HCC1395 = test: cells; assay type: functional, cell-based, Homo sapiens; settings: Homo sapiens, HCC1395;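 note: growth inhibition of HCC1395 cells, read out by a cell viability assay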
Description: SANGER: Inhibition of human HCC1395 cell growth in a cell viability assay.

GDM-1 = test: cells; assay type: functional, cell-based, Homo sapiens; settings: Homo sapiens, GDM-1;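 note: cell viability readout used to measure growth inhibition of human GDM-1 cells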
Description: SANGER: Inhibition of human GDM-1 cell growth in a cell viability assay.

HCC1806 = test: cells; assay type: functional, cell-based, Homo sapiens; settings: Homo sapiens, HCC1806;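 note: growth inhibition of the cancer cell line, determined with a cell viability assay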
Description: SANGER: Inhibition of human HCC1806 cell growth in a cell viability assay.

647-V = test: cells; assay type: functional, cell-based, Homo sapiens; settings: Homo sapiens, 647-V;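 note: growth inhibition of 647-V cells, read out with a cell viability assay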
Description: SANGER: Inhibition of human 647-V cell growth in a cell viability assay.

Huh-7 = test: cells; assay type: functional, cell-based, Homo sapiens; settings: Homo sapiens, Huh-7;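 note: HuH-7 cell growth inhibition, read out with a cell viability assay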
Description: SANGER: Inhibition of human HuH-7 cell growth in a cell viability assay.

HSC-4 = test: cells; assay type: functional, cell-based, Homo sapiens; settings: Homo sapiens, HSC-4;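 note: growth inhibition of human HSC-4 cells, read out with a cell viability assay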
Description: SANGER: Inhibition of human HSC-4 cell growth in a cell viability assay.

SK-OV-3 = test: cells; assay type: functional, cell-based, Homo sapiens; settings: Homo sapiens, SK-OV-3;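 note: growth inhibition of SK-OV-3 human cells, read out with a cell viability assay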
Description: SANGER: Inhibition of human SK-OV-3 cell growth in a cell viability assay.

NCI-H2030 = test: cells; assay type: functional, cell-based, Homo sapiens; settings: Homo sapiens, NCI-H2030;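 note: growth inhibition of human NCI-H2030 cells, read out by a cell viability assay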
Description: SANGER: Inhibition of human NCI-H2030 cell growth in a cell viability assay.

RERF-LC-MS = test: cells; assay type: functional, cell-based, Homo sapiens; settings: Homo sapiens, RERF-LC-MS;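 note: growth inhibition of human RERF-LC-MS cells, read out by a cell viability assay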
Description: SANGER: Inhibition of human RERF-LC-MS cell growth in a cell viability assay.

P31-FUJ = test: cells; assay type: functional, cell-based, Homo sapiens; settings: Homo sapiens, P31-FUJ;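 note: growth inhibition of P31-FUJ cells, read out with a viability assay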
Description: SANGER: Inhibition of human P31-FUJ cell growth in a cell viability assay.

L-540 = test: cells; assay type: functional, cell-based, Homo sapiens; settings: Homo sapiens, L-540;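 note: growth inhibition of the human L-540 cell line, read out with a viability assay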
Description: SANGER: Inhibition of human L-540 cell growth in a cell viability assay.

AU565 = test: cells; assay type: functional, cell-based, Homo sapiens; settings: Homo sapiens, AU565;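 note: cell viability assay measuring growth inhibition of human AU565 cells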
Description: SANGER: Inhibition of human AU565 cell growth in a cell viability assay.

KYSE-270 = test: cells; assay type: functional, cell-based, Homo sapiens; settings: Homo sapiens, KYSE-270;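 note: cell growth inhibition measured with a viability assay in the human KYSE-270 line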
Description: SANGER: Inhibition of human KYSE-270 cell growth in a cell viability assay.

A673 = test: cells; assay type: functional, cell-based, Homo sapiens; settings: Homo sapiens, A673;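 note: growth inhibition of human A673 cells, read out through a cell viability assay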
Description: SANGER: Inhibition of human A673 cell growth in a cell viability assay.

BOKU = test: cells; assay type: functional, cell-based, Homo sapiens; settings: Homo sapiens, BOKU
Description: SANGER: Inhibition of human BOKU cell growth in a cell viability assay.

SNU-449 = test: cells; assay type: functional, cell-based, Homo sapiens; settings: Homo sapiens, SNU-449
Description: SANGER: Inhibition of human SNU-449 cell growth in a cell viability assay.

UMUC3 = test: cells; assay type: functional, cell-based, Homo sapiens; settings: Homo sapiens, UMUC3;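 note: growth inhibition of human UM-UC-3 cells, read out with a cell viability assay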
Description: SANGER: Inhibition of human UM-UC-3 cell growth in a cell viability assay.

U2OS = test: cells; assay type: functional, cell-based, Homo sapiens, U-2-OS; settings: Homo sapiens, U2OS;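 note: growth inhibition of human U-2-OS cells, determined with a cell viability assay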
Description: SANGER: Inhibition of human U-2-OS cell growth in a cell viability assay.

ECC4 = test: cells; assay type: functional, cell-based, Homo sapiens; settings: Homo sapiens, ECC4;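 note: growth inhibition of ECC4 cells, read out with a cell viability assay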
Description: SANGER: Inhibition of human ECC4 cell growth in a cell viability assay.

NCI-H522 = test: cells; assay type: functional, cell-based, Homo sapiens; settings: Homo sapiens, NCI-H522;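 note: cell viability assay measuring growth inhibition of human NCI-H522 cells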
Description: SANGER: Inhibition of human NCI-H522 cell growth in a cell viability assay.

THP-1 = test: cells; assay type: functional, cell-based, Homo sapiens; settings: Homo sapiens, THP-1;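 note: growth inhibition of THP-1 cells, read out via a cell viability assay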
Description: SANGER: Inhibition of human THP-1 cell growth in a cell viability assay.

RPMI 8402 = test: SANGER: Inhibition of human RPMI-8402 cell growth in a cell viability assay.; assay type: functional, cell-based; settings: Homo sapiens, RPMI 8402; read-out: IC50
IST-SL2 = test: cells; assay type: functional, cell-based, Homo sapiens; settings: Homo sapiens, IST-SL2;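 note: growth inhibition of human IST-SL2 cells, read out by a cell viability assay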
Description: SANGER: Inhibition of human IST-SL2 cell growth in a cell viability assay.

Hs-578T = test: cells; assay type: functional, cell-based, Homo sapiens; settings: Homo sapiens, Hs-578T
Description: SANGER: Inhibition of human Hs-578-T cell growth in a cell viability assay.

NCI-H2122 = test: cells; assay type: functional, cell-based, Homo sapiens; settings: Homo sapiens, NCI-H2122
Description: SANGER: Inhibition of human NCI-H2122 cell growth in a cell viability assay.

BL-70 = test: SANGER: Inhibition of human BL-70 cell growth in a cell viability assay.; assay type: functional, cell-based; settings: Homo sapiens, BL-70
NCI-H1563 = test: cells; assay type: functional, cell-based, Homo sapiens; settings: Homo sapiens, NCI-H1563;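 note: growth inhibition of human NCI-H1563 cells, read out with a cell viability assay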
Description: SANGER: Inhibition of human NCI-H1563 cell growth in a cell viability assay.

MCF7 = test: cells; assay type: functional, cell-based, Homo sapiens; settings: Homo sapiens, MCF7;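 note: growth inhibition of human MCF7 cells, read out with a cell viability assay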
Description: SANGER: Inhibition of human MCF7 cell growth in a cell viability assay.

A-427 = test: cells; assay type: functional, cell-based, Homo sapiens; settings: Homo sapiens, A-427;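 note: growth inhibition of human A-427 cells, read out by a cell viability assay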
Description: SANGER: Inhibition of human A427 cell growth in a cell viability assay.

G-402 = test: cells; assay type: functional, cell-based, Homo sapiens; settings: Homo sapiens, G-402
Description: SANGER: Inhibition of human G-402 cell growth in a cell viability assay.

DG-75 = test: cells; assay type: functional, cell-based, Homo sapiens; settings: Homo sapiens, DG-75;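 note: growth inhibition of DG-75 cells, read out with a cell viability assay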
Description: SANGER: Inhibition of human DG-75 cell growth in a cell viability assay.

A2780 = test: cells; assay type: functional, cell-based, Homo sapiens; settings: Homo sapiens, A2780;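 note: growth inhibition of A2780 cells, read out with a cell viability assay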
Description: SANGER: Inhibition of human A2780 cell growth in a cell viability assay.

NCI-H187 = test: cells; assay type: functional, cell-based, Homo sapiens; settings: Homo sapiens, NCI-H187;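 note: growth inhibition of NCI-H187 cells, read out as cell viability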
Description: SANGER: Inhibition of human NCI-H187 cell growth in a cell viability assay.

COLO-680N = test: cells; assay type: functional, cell-based, Homo sapiens; settings: Homo sapiens, COLO-680N;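 note: cell viability assay used to measure inhibition of COLO-680N cell growth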
Description: SANGER: Inhibition of human COLO-680N cell growth in a cell viability assay.

MIA PaCa-2 = test: cells; assay type: functional, cell-based, Homo sapiens; settings: Homo sapiens, MIA PaCa-2;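 note: growth inhibition of MIA PaCa-2 cells, read out with a cell viability assay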
Description: SANGER: Inhibition of human MIA-PaCa-2 cell growth in a cell viability assay.

SKG-IIIa = test: cells; assay type: functional, cell-based, Homo sapiens; settings: Homo sapiens, SKG-IIIa
Description: SANGER: Inhibition of human SKG-IIIa cell growth in a cell viability assay.

Nc1ccn([C@@H]2O[C@H](CO)[C@@H](O)C2(F)F)c(=O)n1 [GEMCITABINE]
IC50 (HLE): 3 nM | IC50 (SCC-25): 289 nM | IC50 (YT): > 1020 nM | IC50 (MDA-MB-231): 27.8 nM | IC50 (HO-1-N-1): 23.8 nM | IC50 (NCI-H596): 225 nM | IC50 (JIYOYE): 39.4 nM | IC50 (OAW-28): 45.4 nM | IC50 (GCT): 405 nM | IC50 (T98G): 539 nM | IC50 (SW1417): > 1020 nM | IC50 (HCC1395): > 1020 nM | IC50 (GDM-1): 62.5 nM | IC50 (HCC1806): 2.91 nM | IC50 (647-V): < 4 nM | IC50 (Huh-7): 569 nM | IC50 (HSC-4): < 4 nM | IC50 (SK-OV-3): 38.7 nM | IC50 (NCI-H2030): 30.4 nM | IC50 (RERF-LC-MS): 177 nM | IC50 (P31-FUJ): > 1020 nM | IC50 (L-540): 1.6 nM | IC50 (AU565): 21.8 nM | IC50 (KYSE-270): < 4 nM | IC50 (A673): 34.2 nM | IC50 (BOKU): 254 nM | IC50 (SNU-449): 13.8 nM | IC50 (UMUC3): 16.2 nM | IC50 (U2OS): > 1020 nM | IC50 (ECC4): > 1020 nM | IC50 (NCI-H522): 4.34 nM | IC50 (THP-1): 664 nM | IC50 (RPMI 8402): 45.9 nM | IC50 (IST-SL2): < 4 nM | IC50 (Hs-578T): > 1020 nM | IC50 (NCI-H2122): < 4 nM | IC50 (BL-70): 111 nM | IC50 (NCI-H1563): > 1020 nM | IC50 (MCF7): < 4 nM | IC50 (A-427): 324 nM | IC50 (G-402): < 4 nM | IC50 (DG-75): > 1020 nM | IC50 (A2780): < 4 nM | IC50 (NCI-H187): > 1020 nM | IC50 (COLO-680N): 75.5 nM | IC50 (MIA PaCa-2): 23.4 nM | IC50 (SKG-IIIa): 810 nM

O=C(O)c1ccc(-c2c[nH]c3ncc(-c4ccccc4)cc23)cc1C1CCCC1 [GSK-650394]
IC50 (HLE): 1430 nM | IC50 (SCC-25): > 16000 nM | IC50 (YT): 9900 nM | IC50 (MDA-MB-231): > 16000 nM | IC50 (HO-1-N-1): > 16000 nM | IC50 (NCI-H596): > 16000 nM | IC50 (JIYOYE): > 16000 nM | IC50 (OAW-28): > 16000 nM | IC50 (GCT): > 16000 nM | IC50 (T98G): > 16000 nM | IC50 (SW1417): > 16000 nM | IC50 (HCC1395): > 16000 nM | IC50 (GDM-1): 879 nM | IC50 (HCC1806): > 16000 nM | IC50 (647-V): > 16000 nM | IC50 (Huh-7): > 16000 nM | IC50 (HSC-4): > 16000 nM | IC50 (SK-OV-3): > 16000 nM | IC50 (NCI-H2030): > 16000 nM | IC50 (RERF-LC-MS): > 16000 nM | IC50 (P31-FUJ): > 16000 nM | IC50 (L-540): > 16000 nM | IC50 (AU565): > 16000 nM | IC50 (KYSE-270): 2410 nM | IC50 (A673): > 16000 nM | IC50 (BOKU): > 16000 nM | IC50 (SNU-449): > 16000 nM | IC50 (UMUC3): 9580 nM | IC50 (U2OS): > 16000 nM | IC50 (ECC4): > 16000 nM | IC50 (NCI-H522): 13000 nM | IC50 (THP-1): > 16000 nM | IC50 (RPMI 8402): > 16000 nM | IC50 (IST-SL2): 4830 nM | IC50 (Hs-578T): > 16000 nM | IC50 (NCI-H2122): 3330 nM | IC50 (BL-70): > 16000 nM | IC50 (NCI-H1563): > 16000 nM | IC50 (MCF7): 1820 nM | IC50 (A-427): 1880 nM | IC50 (G-402): 9130 nM | IC50 (DG-75): > 16000 nM | IC50 (A2780): > 16000 nM | IC50 (NCI-H187): > 16000 nM | IC50 (COLO-680N): > 16000 nM | IC50 (MIA PaCa-2): 7080 nM | IC50 (SKG-IIIa): > 16000 nM
